Molecules are shown by their SMILES.

Our source for the Ki, bioavailability and pKi values is patent publication US9593110B2, “Neprilysin inhibitors” (Theravence Biopharma R&D IP, LLC, priority 2014, dated 2017).

For data set [1], the target named is human NEP (Homo sapiens (Human), UniProt P08473). Kind of data set: In vitro enzyme inhibition assay at human NEP. The conditions noted are these: recombinant human NEP, fluorogenic peptide substrate, 37° C.; for Ki: pKi.
Data set [2] in a line: Rat PO cassette assay (oral bioavailability). Type of data set: in vivo, Sprague-Dawley rats. The conditions noted are these: male, Sprague-Dawley, plasma, single oral gavage vs intravenous dose, 0.5 mg/kg. The text has this: Oral bioavailability, or % F, is a measure of the percentage of a drug in an oral dose that actually reaches the systemic circulation. Compound losses can occur due to incomplete formulation dissolution, incomplete absorption due to compound insolubility or instability along the GI, or metabolism in the gut or across the gut wall. The fraction of the dose which reaches the hepatic portal vein must also then pass through the liver before reaching the systemic circulation. Compound metabolism, or “first-pass extraction,” can occur during this initial passage through the liver, and this is an additional potential source of compound loss. Oral bioavailability is calculated as the dose-normalized ratio of drug exposure after an oral dose to that after an intravenous dose, wherein the entire dose is delivered directly to the systemic circulation.
Each cassette study begins with 10 mM DMSO stock solutions of up to 5 different compounds. Typically, compounds are selected such no two compounds dosed in the same cassette have a molecular weight within 5 Da of each other. This simplifies subsequent bioanalysis. Appropriate volumes of each DMSO stock are added into a volume of vehicle (5% sodium bicarbonate, 5% dextrose in H2O) such that the final concentration of each compound is 0.25 mg/mL. Intravenous dosing solutions are sterile-filtered (0.2 μm) prior to dosing.
Pre-cannulated male Sprague-Dawley rats (3 per cassette per route) between 8 and 10 weeks of age were obtained from Harlan Laboratories (Indianapolis, Ind.). Rats received either a single oral gavage or a single intravenous (via lateral tail vein) dose (2 mL/kg) of the dosing solution. The final dose was 0.5 mg/kg. Serial blood samples were harvested via jugular vein cannula at 3 minutes, 15 minutes, 30 minutes, 1 hours, 2 hours, 4 hours, 6 hours, and 24 hours post-dose. Sampling was performed either manually or using automated blood samplers. Samples were collected into microtainer tubes containing EDTA as the anticoagulant and are processed to plasma by refrigerated centrifugation.
Plasma samples were extracted with 3 volumes of MeCN containing a suitable internal standard. Extracts were reconstituted into 3 volumes of water containing 1% formic acid, and analyzed via HPLC-coupled MS/MS. Plasma concentration-time data were analyzed using the Phoenix software (Pharsight Corp., St. Louis, Mo.) to calculate pharmacokinetic parameters.
Compounds of the invention of particular interest were those having a % F>10%, when tested in this assay.

Sequence of human NEP (P08473 52-750): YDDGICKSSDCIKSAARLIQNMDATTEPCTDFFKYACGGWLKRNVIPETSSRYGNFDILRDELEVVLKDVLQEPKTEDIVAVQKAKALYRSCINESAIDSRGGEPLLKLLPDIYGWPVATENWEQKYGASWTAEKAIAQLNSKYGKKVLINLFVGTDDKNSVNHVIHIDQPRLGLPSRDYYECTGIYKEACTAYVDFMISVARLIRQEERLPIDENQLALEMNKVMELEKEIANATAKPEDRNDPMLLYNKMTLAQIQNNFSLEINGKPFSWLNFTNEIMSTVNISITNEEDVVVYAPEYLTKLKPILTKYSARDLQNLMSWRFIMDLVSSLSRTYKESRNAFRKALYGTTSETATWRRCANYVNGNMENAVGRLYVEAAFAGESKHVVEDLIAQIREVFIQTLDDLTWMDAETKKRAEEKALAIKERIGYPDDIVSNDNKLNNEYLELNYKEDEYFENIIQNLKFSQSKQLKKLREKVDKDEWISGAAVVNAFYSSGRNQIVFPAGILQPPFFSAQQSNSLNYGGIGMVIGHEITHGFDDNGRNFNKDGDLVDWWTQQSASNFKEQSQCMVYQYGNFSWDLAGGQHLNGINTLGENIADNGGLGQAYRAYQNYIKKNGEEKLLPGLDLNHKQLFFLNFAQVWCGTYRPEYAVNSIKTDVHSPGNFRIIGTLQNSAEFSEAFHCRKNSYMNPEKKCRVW

As usually defined, the Ki is a dissociation constant, usually derived from enzyme kinetics or from competition with a known ligand. Broadly, the bioavailability is dose-corrected exposure relative to a reference, in per cent. Turning to `Cc1cc(C(=O)NC(Cc2ccc(-c3cc(Cl)ccc3F)cc2)C[C@@H](CC#N)C(=O)O)sn1` (single isomer, unassigned) [Example 52-1], the Ki in data set [1] was no more than 1 nM. In data set [2], this molecule showed a bioavailability greater than 10%. For `CCc1cc(C(=O)N[C@H](Cc2ccc(-c3cc(Cl)ccc3F)cc2)C[C@@H](COC)C(=O)O)on1` [Example 1, (2S,4S)-5-(5′-Chloro-2′-fluorobiphenyl-4-yl)-4-[(3-ethylisoxazole-5-carbonyl)amino]-2-methoxymethylpentanoic Acid], in that order: no more than 1 nM and greater than 10%. With `COC[C@H](C[C@@H](Cc1ccc(-c2cc(Cl)ccc2F)cc1)NC(=O)c1c[nH]nn1)C(=O)O` [Example 2-1, (2S,4S)-5-(5′-chloro-2′-fluorobiphenyl-4-yl)-2-methoxymethyl-4-[(1H-[1,2,3]triazole-4-carbonyl)amino]pentanoic acid], the pKi entry in data set [1] was “≧9.0”. In data set [2], this molecule came in with a bioavailability greater than 10%. Take `COC[C@H](C[C@@H](Cc1ccc(-c2cc(Cl)ccc2F)cc1)NC(=O)c1n[nH]c(C(F)(F)F)n1)C(=O)O` [Example 2-2, (2S,4S)-5-(5′-Chloro-2′-fluorobiphenyl-4-yl)-2-methoxymethyl-4-[(5-trifluoromethyl-1H-[1,2,4]triazole-3-carbonyl)amino]pentanoic acid]: the pKi entry in data set [1] was “≧9.0”. The molecule further had a bioavailability in data set [2] greater than 10%. Take `COC[C@H](C[C@@H](Cc1ccc(-c2cc(Cl)ccc2F)cc1)NC(=O)c1cc(OC)no1)C(=O)O` [Example 2-6, (2S,4S)-5-(5′-Chloro-2′-fluorobiphenyl-4-yl)-4-[(3-methoxyisoxazole-5-carbonyl)-amino]-2-methoxymethylpentanoic acid]: in data set [1], the pKi entry is “≧9.0”. In addition, the bioavailability in data set [2] is greater than 10%. For `COC[C@H](C[C@@H](Cc1ccc(-c2cc(Cl)ccc2F)cc1)NC(=O)c1cocn1)C(=O)O` [Example 2-8, (2S,4S)-5-(5′-Chloro-2′-fluorobiphenyl-4-yl)-2-methoxymethyl-4-[(oxazole-4-carbonyl)amino]pentanoic acid], in that order: “≧9.0” and greater than 10%. The like results for `COC[C@H](C[C@@H](Cc1ccc(-c2cc(Cl)ccc2F)cc1)NC(=O)c1coc(C2CC2)n1)C(=O)O` [Example 2-9, (2S,4S)-5-(5′-Chloro-2′-fluorobiphenyl-4-yl)-4-[(2-cyclopropyloxazole-4-carbonyl)amino]-2-methoxymethylpentanoic acid] were, in that order, “≧9.0” and greater than 10%. For `COC[C@H](C[C@@H](Cc1ccc(-c2cc(Cl)ccc2F)cc1)NC(=O)c1ncccn1)C(=O)O` [Example 2-13, (2S,4S)-5-(5′-Chloro-2′-fluorobiphenyl-4-yl)-2-methoxymethyl-4-[(pyrimidine-2-carbonyl)amino]pentanoic acid], in that order: “≧9.0” and greater than 10%. On to `COC[C@H](C[C@@H](Cc1ccc(-c2cc(Cl)ccc2F)cc1)NC(=O)c1ncc(C)o1)C(=O)O` [Example 2-15, (2S,4S)-5-(5′-Chloro-2′-fluorobiphenyl-4-yl)-2-methoxymethyl-4-[(5-methyloxazole-2-carbonyl)amino]pentanoic acid], for which the pKi entry in data set [1] is “≧9.0”. Moreover, in data set [2], the bioavailability is greater than 10%. The like results for `CCOc1cc(C(=O)N[C@H](Cc2ccc(-c3cc(Cl)ccc3F)cc2)C[C@@H](COC)C(=O)O)n[nH]1` [Example 2-16, (2S,4S)-5-(5′-Chloro-2′-fluorobiphenyl-4-yl)-4-[(5-ethoxy-1H-pyrazole-3-carbonyl)amino]-2-methoxymethylpentanoic acid] were, in that order, “≧9.0” and greater than 10%. For `COC[C@H](C[C@@H](Cc1ccc(-c2cccc(Cl)c2)cc1)NC(=O)c1cnn[nH]1)C(=O)O` [Example 3, (2S,4S)-5-(3′-Chlorobiphenyl-4-yl)-2-methoxymethyl-4-[(3H-[1,2,3]triazole-4-carbonyl)amino]pentanoic Acid], in that order: “≧9.0” and greater than 10%. The like results for `COC[C@H](C[C@@H](Cc1ccc(-c2ccccc2)cc1)NC(=O)c1c[nH]nn1)C(=O)O` [Example 5, (2S,4S)-5-Biphenyl-4-yl-2-methoxymethyl-4-[(1H-[1,2,3]-triazole-4-carbonyl)amino]pentanoic Acid] were, in that order, “≧9.0” and greater than 10%. For the molecule `CCOC[C@H](C[C@@H](Cc1ccc(-c2cc(Cl)ccc2F)cc1)NC(=O)c1c[nH]nn1)C(=O)O` [Example 7-1, (2S,4S)-5-(5′-Chloro-2′-fluorobiphenyl-4-yl)-2-ethoxymethyl-4-[(1H-[1,2,3]triazole-4-carbonyl)amino]pentanoic acid], the pKi entry in data set [1] was “≧9.0”. In addition, the bioavailability in data set [2] is greater than 10%. The like results for `CCOC[C@H](C[C@@H](Cc1ccc(-c2cc(Cl)ccc2F)cc1)NC(=O)c1[nH]nc(C2CC2)c1F)C(=O)O` [Example 7-2, (2S,4S)-5-(5′-Chloro-2′-fluorobiphenyl-4-yl)-4-[(5-cyclopropyl-4-fluoro-2H-pyrazole-3-carbonyl)amino]-2-ethoxymethylpentanoic acid] were, in that order, “≧9.0” and greater than 10%. In data set [2], `CCOC(=O)[C@H](N)C[C@@H](Cc1ccc(-c2cc(Cl)ccc2F)cc1)NC(=O)c1coc(=O)[nH]1` [Example 16-32, (2R,4R)-2-Amino-5-(5′-chloro-2′-fluorobiphenyl-4-yl)-4-[(2-oxo-2,3-dihydro-oxazole-4-carbonyl)amino]pentanoic acid ethyl ester] showed a bioavailability greater than 10%. Regarding `CCOC(=O)[C@@H](C[C@@H](Cc1ccc(-c2cc(Cl)ccc2F)cc1)NC(=O)c1cnn[nH]1)CN1CCOCC1` [Example 69b, (2S,4S)-5-(5′-Chloro-2′-fluorobiphenyl-4-yl)-2-morpholin-4-ylmethyl-4-[(3H-[1,2,3]triazole-4-carbonyl)amino]pentanoic Acid Ethyl Ester], in data set [2], the bioavailability was greater than 10%.

In turn, `CCOC(=O)[C@@H](C[C@@H](Cc1ccc(-c2cc(Cl)ccc2F)cc1)NC(=O)c1cnn[nH]1)CN1CCC1` [Example 84a, (2S,4S)-2-Azetidin-1-ylmethyl-5-(5′-chloro-2′-fluorobiphenyl-4-yl)-4-[(3H-[1,2,3]triazole-4-carbonyl)amino]pentanoic Acid Ethyl Ester] displayed a bioavailability in data set [2] greater than 10%. The same measure, in the same setting: the value for `CCOC(=O)[C@@H](C[C@@H](Cc1ccc(-c2cc(Cl)ccc2F)cc1)NC(=O)c1cnn[nH]1)CN1CC(F)C1` [Example 91a, (2S,4S)-5-(5′-Chloro-2′-fluorobiphenyl-4-yl)-2-(3-fluoroazetidin-1-ylmethyl)-4-[(3H-[1,2,3]triazole-4-carbonyl)amino]pentanoic Acid Ethyl Ester] was greater than 10%. Take `COC[C@H]1CCN1C[C@H](C[C@@H](Cc1ccc(-c2cc(Cl)ccc2F)cc1)NC(=O)c1c[nH]nn1)C(=O)O` [Example 103b, (2S,4S)-5-(5′-Chloro-2′-fluorobiphenyl-4-yl)-2-((R)-2-methoxymethylazetidin-1-ylmethyl)-4-[(3H-[1,2,3]triazole-4-carbonyl)amino]pentanoic Acid]: the Ki in data set [1] was no more than 1 nM.

For the molecule `COC[C@@H]1CCN1C[C@H](C[C@@H](Cc1ccc(-c2cc(Cl)ccc2F)cc1)NC(=O)c1c[nH]nn1)C(=O)O` [Example 103d, (2S,4S)-5-(5′-Chloro-2′-fluorobiphenyl-4-yl)-2-((S)-2-methoxymethylazetidin-1-ylmethyl)-4-[(3H-[1,2,3]triazole-4-carbonyl)amino]pentanoic Acid], the Ki in data set [1] was no more than 1 nM. Regarding `CC(C)(N)[C@H](C[C@@H](Cc1ccc(-c2cc(Cl)ccc2F)cc1)NC(=O)c1cnn[nH]1)C(=O)O` [Example 104, (2S,4S)-2-(1-Amino-1-methylethyl)-5-(5′-chloro-2′-fluorobiphenyl-4-yl)-4-[(3H-[1,2,3]triazole-4-carbonyl)amino]pentanoic Acid], the pKi result in data set [1] is “≧9.0”.

As to `O=C(N[C@H](Cc1ccc(-c2cc(Cl)ccc2F)cc1)C[C@@H](CN1CC(CCO)C1)C(=O)O)c1c[nH]nn1` [Example 105, (2S,4S)-5-(5′-Chloro-2′-fluorobiphenyl-4-yl)-2-[3-(2-hydroxyethyl)azetidin-1-ylmethyl]-4-[(1H-[1,2,3]triazole-4-carbonyl)amino]pentanoic Acid], the inhibition constant Ki in data set [1] is no more than 1 nM. As for `CN(CCO)C[C@H](C[C@@H](Cc1ccc(-c2cc(Cl)ccc2F)cc1)NC(=O)c1c[nH]nn1)C(=O)O` [Example 106, (2S,4S)-5-(5′-Chloro-2′-fluorobiphenyl-4-yl)-2-{[(2-hydroxyethyl)-methylamino]methyl}-4-[(1H-[1,2,3]triazole-4-carbonyl)amino]pentanoic Acid], in data set [1], the Ki was in the range of 1.26 to 3.16 nM.
